Data from article PMC1241435 (Environmental Health Perspectives, 2003).

Key:
[1] = biological target: T1, FMO I (Homo sapiens, UniProt Q01740); assay: sulfoxide formation by microsomes of cells expressing the recombinant enzyme; format: cell-based
T1 sequence (Q01740 2-532): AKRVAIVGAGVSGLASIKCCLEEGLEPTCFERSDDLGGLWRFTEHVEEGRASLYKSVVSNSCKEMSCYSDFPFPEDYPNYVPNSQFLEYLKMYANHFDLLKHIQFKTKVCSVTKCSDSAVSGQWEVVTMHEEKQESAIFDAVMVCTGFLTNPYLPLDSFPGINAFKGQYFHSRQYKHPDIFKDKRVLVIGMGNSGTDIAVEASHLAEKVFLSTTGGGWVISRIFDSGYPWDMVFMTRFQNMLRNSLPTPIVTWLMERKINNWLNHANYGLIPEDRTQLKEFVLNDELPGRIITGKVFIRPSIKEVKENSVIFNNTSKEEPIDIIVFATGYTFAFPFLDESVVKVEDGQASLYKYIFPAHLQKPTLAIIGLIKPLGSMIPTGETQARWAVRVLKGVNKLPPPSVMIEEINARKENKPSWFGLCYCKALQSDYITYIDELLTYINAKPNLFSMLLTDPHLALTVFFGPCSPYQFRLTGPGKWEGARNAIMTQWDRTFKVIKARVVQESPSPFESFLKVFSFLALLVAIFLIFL

[2] = biological target: T2, CYP 1A1 (Homo sapiens, UniProt P04798); assay: as above; format: cell-based
T2 sequence (P04798 1-512): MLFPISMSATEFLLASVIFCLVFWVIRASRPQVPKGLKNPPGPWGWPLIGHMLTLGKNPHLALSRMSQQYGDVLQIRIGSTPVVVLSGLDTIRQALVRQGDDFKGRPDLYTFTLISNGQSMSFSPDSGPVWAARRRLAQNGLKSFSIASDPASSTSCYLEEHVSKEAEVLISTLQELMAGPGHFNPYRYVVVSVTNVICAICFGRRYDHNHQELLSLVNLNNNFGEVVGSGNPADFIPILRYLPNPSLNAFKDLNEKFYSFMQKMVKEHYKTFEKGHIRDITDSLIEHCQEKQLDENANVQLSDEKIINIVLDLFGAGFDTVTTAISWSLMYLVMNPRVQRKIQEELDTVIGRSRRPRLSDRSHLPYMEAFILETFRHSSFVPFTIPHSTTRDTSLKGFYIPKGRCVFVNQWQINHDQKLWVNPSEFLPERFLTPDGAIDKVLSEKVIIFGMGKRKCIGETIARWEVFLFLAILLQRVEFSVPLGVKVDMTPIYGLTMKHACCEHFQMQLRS

Compound: COP(=S)(OC)Oc1ccc(SC)c(C)c1 [fenthion, O,O-dimethyl-O-(4-methylmercapto)-3-methylphenylthio-phosphate]
- sulfoxide formation by microsomes of cells expressing the recombinant enzyme [1]: 62.4 nmol/min/mg protein
- sulfoxide formation by microsomes of cells expressing the recombinant enzyme [2]: 3.6 nmol/min/mg protein
